According to PubChem BioAssay (NCI):
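GI50: concentration for 50% inhibition of growth. At the TGI there is no net growth.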

What was measured:
Assay in all cases: DTP human tumour cell line panel, 384-well format
NCI-H23 lung = test system: NCI-H23 lung
HCT-15 colon = test system: HCT-15 colon
COLO 205 colon = test system: COLO 205 colon
UACC-257 melanoma = test system: UACC-257 melanoma
SNB-19 CNS = test system: SNB-19 CNS
RPMI-8226 leukemia = test system: RPMI-8226 leukemia
HS 578T breast = test system: HS 578T breast
EKVX NSCLC = test system: EKVX NSCLC
PC-3 prostate = test system: PC-3 prostate
HCC-2998 colon = test system: HCC-2998 colon
IGROV1 ovarian = test system: IGROV1 ovarian
NCI/ADR-RES ovarian = test system: NCI/ADR-RES ovarian
MOLT-4 leukemia = test system: MOLT-4 leukemia
786-0 renal = test system: 786-0 renal
RXF 393 renal = test system: RXF 393 renal
SNB-75 CNS = test system: SNB-75 CNS
SW-620 colon = test system: SW-620 colon
OVCAR-5 ovarian = test system: OVCAR-5 ovarian
HL-60(TB) leukemia = test system: HL-60(TB) leukemia
SN12C renal = test system: SN12C renal
SK-OV-3 ovarian = test system: SK-OV-3 ovarian
NCI-H226 lung = test system: NCI-H226 lung
CCRF-CEM leukemia = test system: CCRF-CEM leukemia
KM12 colon = test system: KM12 colon
MCF7 breast = test system: MCF7 breast
HOP-62 NSCLC = test system: HOP-62 NSCLC
SK-MEL-2 melanoma = test system: SK-MEL-2 melanoma
K-562 leukemia = test system: K-562 leukemia
T-47D breast = test system: T-47D breast
UO-31 renal = test system: UO-31 renal
NCI-H322M lung = test system: NCI-H322M lung
NCI-H522 lung = test system: NCI-H522 lung
OVCAR-3 ovarian = test system: OVCAR-3 ovarian
TK-10 renal = test system: TK-10 renal
HOP-92 NSCLC = test system: HOP-92 NSCLC
SF-539 CNS = test system: SF-539 CNS
SF-295 CNS = test system: SF-295 CNS
MDA-MB-231 breast = test system: MDA-MB-231 breast
NCI-H460 NSCLC = test system: NCI-H460 NSCLC
U251 glioblastoma = test system: U251 glioblastoma
SF-268 CNS = test system: SF-268 CNS
HT29 colon = test system: HT29 colon
M14 melanoma = test system: M14 melanoma
HCT-116 colon = test system: HCT-116 colon
MDA-MB-435 melanoma = test system: MDA-MB-435 melanoma
MDA-MB-468 breast = test system: MDA-MB-468 breast
A498 renal = test system: A498 renal
MALME-3M melanoma = test system: MALME-3M melanoma
DU-145 prostate = test system: DU-145 prostate
OVCAR-8 ovarian = test system: OVCAR-8 ovarian
OVCAR-4 ovarian = test system: OVCAR-4 ovarian
SK-MEL-28 melanoma = test system: SK-MEL-28 melanoma
BT-549 breast = test system: BT-549 breast
LOX IMVI melanoma = test system: LOX IMVI melanoma
SR leukemia = test system: SR leukemia
CAKI-1 renal = test system: CAKI-1 renal
UACC-62 melanoma = test system: UACC-62 melanoma
A549 NSCLC = test system: A549 NSCLC
SK-MEL-5 melanoma = test system: SK-MEL-5 melanoma

CO[C@@H](C)Cn1c(=O)n(C)c2cnc3ccc(-c4cncc(C(C)(C)O)c4)cc3c21
GI50 (NCI-H23 lung): 319 nM
TGI (NCI-H23 lung): 2600 nM
GI50 (HCT-15 colon): 154 nM
TGI (HCT-15 colon): 12500 nM
GI50 (COLO 205 colon): 186 nM
TGI (COLO 205 colon): 1480 nM
GI50 (UACC-257 melanoma): 429 nM
TGI (UACC-257 melanoma): 2700 nM
GI50 (SNB-19 CNS): 334 nM
TGI (SNB-19 CNS): 12600 nM
GI50 (RPMI-8226 leukemia): 28.2 nM
TGI (RPMI-8226 leukemia): 78.8 nM
GI50 (HS 578T breast): 35.7 nM
TGI (HS 578T breast): 217 nM
GI50 (EKVX NSCLC): 96.1 nM
TGI (EKVX NSCLC): 885 nM
GI50 (PC-3 prostate): 84.2 nM
TGI (PC-3 prostate): 740 nM
GI50 (HCC-2998 colon): 188 nM
TGI (HCC-2998 colon): 2110 nM
GI50 (IGROV1 ovarian): 35 nM
TGI (IGROV1 ovarian): 173 nM
GI50 (NCI/ADR-RES ovarian): 2150 nM
TGI (NCI/ADR-RES ovarian): 15400 nM
GI50 (MOLT-4 leukemia): 81.2 nM
TGI (MOLT-4 leukemia): 299 nM
GI50 ([…]-0 renal): 133 nM
TGI (786-0 renal): 4550 nM
GI50 (RXF 393 renal): 54.6 nM
TGI (RXF 393 renal): 1370 nM
GI50 (SNB-75 CNS): 44 nM
TGI (SNB-75 CNS): 502 nM
GI50 (SW-620 colon): 197 nM
TGI (SW-620 colon): 1360 nM
GI50 (OVCAR-5 ovarian): 206 nM
TGI (OVCAR-5 ovarian): 1690 nM
GI50 (HL-60(TB) leukemia): 463 nM
TGI (HL-60(TB) leukemia): 1610 nM
GI50 (SN12C renal): 84.9 nM
TGI (SN12C renal): 3570 nM
GI50 (SK-OV-3 ovarian): 88.4 nM
TGI (SK-OV-3 ovarian): 1010 nM
GI50 (NCI-H226 lung): 109 nM
TGI (NCI-H226 lung): 667 nM
GI50 (CCRF-CEM leukemia): 77.9 nM
TGI (CCRF-CEM leukemia): 707 nM
GI50 (KM12 colon): 136 nM
TGI (KM12 colon): 12900 nM
GI50 (MCF7 breast): 71.1 nM
TGI (MCF7 breast): 1670 nM
GI50 (HOP-62 NSCLC): 109 nM
TGI (HOP-62 NSCLC): 1340 nM
GI50 (SK-MEL-2 melanoma): 243 nM
TGI (SK-MEL-2 melanoma): 592 nM
GI50 (K-562 leukemia): 162 nM
TGI (K-562 leukemia): 11800 nM
GI50 (T-47D breast): 77.1 nM
TGI (T-47D breast): 406 nM
GI50 (UO-31 renal): 122 nM
TGI (UO-31 renal): 6310 nM
GI50 (NCI-H322M lung): 139 nM
TGI (NCI-H322M lung): 2300 nM
GI50 (NCI-H522 lung): 104 nM
TGI (NCI-H522 lung): 1630 nM
GI50 (OVCAR-3 ovarian): 84.6 nM
TGI (OVCAR-3 ovarian): 894 nM
GI50 (TK-10 renal): 220 nM
TGI (TK-10 renal): 907 nM
GI50 (HOP-92 NSCLC): 150 nM
TGI (HOP-92 NSCLC): 702 nM
GI50 (SF-539 CNS): 141 nM
TGI (SF-539 CNS): 1970 nM
GI50 (SF-295 CNS): 57 nM
TGI (SF-295 CNS): 413 nM
GI50 (MDA-MB-231 breast): 57.1 nM
TGI (MDA-MB-231 breast): 20600 nM
GI50 (NCI-H460 NSCLC): 45.1 nM
TGI (NCI-H460 NSCLC): 1570 nM
GI50 (U251 glioblastoma): 221 nM
TGI (U251 glioblastoma): 3460 nM
GI50 (SF-268 CNS): 293 nM
TGI (SF-268 CNS): 1770 nM
GI50 (HT29 colon): 226 nM
TGI (HT29 colon): 11100 nM
GI50 (M14 melanoma): 151 nM
TGI (M14 melanoma): 1850 nM
GI50 (HCT-116 colon): 390 nM
TGI (HCT-116 colon): 1770 nM
GI50 (MDA-MB-435 melanoma): 194 nM
TGI (MDA-MB-435 melanoma): 2360 nM
GI50 (MDA-MB-468 breast): 165 nM
TGI (MDA-MB-468 breast): 574 nM
GI50 (A498 renal): 33 nM
TGI (A498 renal): 374 nM
GI50 (MALME-3M melanoma): 62.6 nM
TGI (MALME-3M melanoma): 327 nM
GI50 (DU-145 prostate): 84.6 nM
TGI (DU-145 prostate): 2690 nM
GI50 (OVCAR-8 ovarian): 86.8 nM
TGI (OVCAR-8 ovarian): 11200 nM
GI50 (OVCAR-4 ovarian): 126 nM
TGI (OVCAR-4 ovarian): 722 nM
GI50 (SK-MEL-28 melanoma): 221 nM
TGI (SK-MEL-28 melanoma): 3480 nM
GI50 (BT-549 breast): 96.2 nM
TGI (BT-549 breast): 503 nM
GI50 (LOX IMVI melanoma): 78.2 nM
TGI (LOX IMVI melanoma): 918 nM
GI50 (SR leukemia): 20.2 nM
TGI (SR leukemia): 55 nM
GI50 (CAKI-1 renal): 76.1 nM
TGI (CAKI-1 renal): 485 nM
GI50 (UACC-62 melanoma): 102 nM
TGI (UACC-62 melanoma): 719 nM
GI50 (A549 NSCLC): 70.7 nM
TGI (A549 NSCLC): 1180 nM
GI50 (SK-MEL-5 melanoma): 157 nM
TGI (SK-MEL-5 melanoma): 463 nM
